Records with an inconclusive call do not appear.
Test system: nude mice, HT29 intrarenal xenograft, tumor weight T/C
Assay: NCI In Vivo Anticancer Drug Screen. Data for tumor model HT29;CX-1 Human Adenocarcinoma (MER+) (intrarenal inoculation) in NU/NU Swiss (nude) mice
Settings: endpoint: mean tumor weight change, higher = larger tumour
Procedure, shortened: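 Mice with transplanted tumors are dosed with compound while controls get vehicle only. Survival or tumor burden is then assessed per group, and the treated value is expressed relative to control.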

[1] = dose: 300.0 mg/kg/injection, schedule: Q04DX004 (sc), vehicle: Klucel (hydroxypropylcellulose) (HPC)
[2] = dose: 600.0 mg/kg/injection, schedule: Q04DX004 (sc), vehicle: Klucel (hydroxypropylcellulose) (HPC)
[3] = dose: 1200.0 mg/kg/injection, schedule: Q04DX004 (sc), vehicle: Klucel (hydroxypropylcellulose) (HPC)
[4] = dose: 2400.0 mg/kg/injection, schedule: Q04DX004 (sc), vehicle: Klucel (hydroxypropylcellulose) (HPC)
[5] = dose: 150.0 mg/kg/injection, schedule: Q04DX004 (sc), vehicle: suspension in saline
[6] = dose: 75.0 mg/kg/injection, schedule: Q04DX004 (sc), vehicle: saline with Tween-80
[7] = dose: 150.0 mg/kg/injection, schedule: Q04DX004 (sc), vehicle: saline with Tween-80
[8] = dose: 300.0 mg/kg/injection, schedule: Q04DX004 (sc), vehicle: saline with Tween-80
[9] = dose: 600.0 mg/kg/injection, schedule: Q04DX004 (sc), vehicle: saline with Tween-80

CCC(=O)O[C@H]1CC[C@H]2[C@@H]3CCC4=CC(=O)CC[C@]4(C)[C@H]3CC[C@]12C
T/C [1]: 59 % of control
T/C [2]: 82 % of control
T/C [3]: 103 % of control
T/C [4]: 52 % of control

O=C1C(NCC(O)CO)=C(N2CC2)C(=O)C(NCC(O)CO)=C1N1CC1 (configuration not stated)
T/C (dose: 4.0 mg/kg/injection, schedule: Q04DX004 (sc), vehicle: saline): 86 % of control
T/C (dose: 8.0 mg/kg/injection, schedule: Q04DX004 (sc), vehicle: saline): 28 % of control
T/C (dose: 16.0 mg/kg/injection, schedule: Q04DX004 (sc), vehicle: saline): 25 % of control

C=C1CC2(OC1=O)C(=O)N(C)c1ccc(I)cc12 (configuration not stated)
T/C (dose: 37.5 mg/kg/injection, schedule: Q04DX004 (sc), vehicle: suspension in saline): 80 % of control
T/C (dose: 75.0 mg/kg/injection, schedule: Q04DX004 (sc), vehicle: suspension in saline): 71 % of control
T/C [5]: 81 % of control

CC(=O)Nc1ccc(C(=O)C=O)cc1
T/C (dose: 50.0 mg/kg/injection, schedule: Q01DX010 (sc), vehicle: saline with Tween-80): 57 % of control
T/C (dose: 100.0 mg/kg/injection, schedule: Q01DX010 (sc), vehicle: saline with Tween-80): 88 % of control
T/C (dose: 200.0 mg/kg/injection, schedule: Q01DX010 (sc), vehicle: saline with Tween-80): 68 % of control
T/C (dose: 400.0 mg/kg/injection, schedule: Q01DX010 (sc), vehicle: saline with Tween-80): 26 % of control
T/C (dose: 800.0 mg/kg/injection, schedule: Q01DX010 (sc), vehicle: saline with Tween-80): 78 % of control

C(CC1CO1)C1CO1 (configuration not stated)
T/C (dose: 50.0 mg/kg/injection, schedule: Q01DX010 (sc), vehicle: saline): 35 % of control
T/C (dose: 100.0 mg/kg/injection, schedule: Q01DX010 (sc), vehicle: saline): 37 % of control

COc1ccc(-c2cc(C(=O)Nc3cc(C(F)(F)F)cc(C(F)(F)F)c3)c3ccccc3n2)cc1
T/C (dose: 300.0 mg/kg/injection, schedule: Q04DX004 (ip), vehicle: DMSO): 115 % of control
T/C (dose: 600.0 mg/kg/injection, schedule: Q04DX004 (ip), vehicle: DMSO): 50 % of control

ClCc1ccc2ccccc2n1
T/C [6]: 82 % of control
T/C [7]: 88 % of control
T/C [8]: 86 % of control
T/C [9]: 53 % of control

CC(/C=C/c1ccccc1)=Nc1ccccc1
T/C [6]: 58 % of control
T/C [7]: 98 % of control
T/C [8]: 50 % of control
T/C [9]: 63 % of control

Brc1ccc(C[N+]23CN4CN(CN(C4)C2)C3)cc1
T/C [7]: 69 % of control
T/C [8]: 101 % of control

Cc1ccc2c(c1)N=C(Nc1ccccc1)N=S2(C)=O (configuration not stated)
T/C (dose: 50.0 mg/kg/injection, schedule: Q04DX004 (sc), vehicle: saline with Tween-80): 48 % of control
T/C (dose: 100.0 mg/kg/injection, schedule: Q04DX004 (sc), vehicle: saline with Tween-80): 67 % of control
T/C (dose: 200.0 mg/kg/injection, schedule: Q04DX004 (sc), vehicle: saline with Tween-80): 66 % of control

CC(C)(C)C1CCCCC1
T/C [1]: 94 % of control
T/C [2]: 97 % of control
T/C [3]: 56 % of control
T/C [4]: 55 % of control

CC(C)(C)N1CC1CNC(=O)C(=O)NCC1CN1C(C)(C)C (configuration not stated)
T/C (dose: 25.0 mg/kg/injection, schedule: Q04DX004 (sc), vehicle: saline with Tween-80): 109 % of control

CC(=O)OCc1cc(=O)n(C)c2c3c4c(cc12)c(C)cc(=O)n4CO3
T/C (dose: 25.0 mg/kg/injection, schedule: Q01DX010 (sc), vehicle: Klucel (hydroxypropylcellulose) (HPC)): 99 % of control
T/C (dose: 50.0 mg/kg/injection, schedule: Q01DX010 (sc), vehicle: Klucel (hydroxypropylcellulose) (HPC)): 105 % of control
T/C (dose: 100.0 mg/kg/injection, schedule: Q01DX010 (sc), vehicle: Klucel (hydroxypropylcellulose) (HPC)): 59 % of control
T/C (dose: 200.0 mg/kg/injection, schedule: Q01DX010 (sc), vehicle: Klucel (hydroxypropylcellulose) (HPC)): 34 % of control

CNc1cccnc1/C=N/NC(N)=S
T/C [6]: 83 % of control
T/C [7]: 110 % of control
T/C [8]: 33 % of control
T/C [9]: 58 % of control

[O-][n+]1c(CN2CCCCC2)nc2cccc3c2c1-c1ccccc1-3
T/C (dose: 150.0 mg/kg/injection, schedule: Q04DX004 (sc), vehicle: Klucel (hydroxypropylcellulose) (HPC)): 274 % of control
T/C [1]: 150 % of control
T/C [2]: 239 % of control
T/C [3]: 303 % of control

C=C/C(C)=C/[C@H](C)C(=O)C[C@H](O)CC1CC(=O)NC(=O)C1
T/C [7]: 91 % of control
T/C [8]: 100 % of control
T/C [9]: 67 % of control
T/C (dose: 1200.0 mg/kg/injection, schedule: Q04DX004 (sc), vehicle: saline with Tween-80): 63 % of control

CCCCn1cnc2c(=S)nc[nH]c21
T/C [5]: 68 % of control
T/C (dose: 300.0 mg/kg/injection, schedule: Q04DX004 (sc), vehicle: suspension in saline): 120 % of control
T/C (dose: 600.0 mg/kg/injection, schedule: Q04DX004 (sc), vehicle: suspension in saline): 150 % of control

CSc1cc(C)[o+]c(C)c1
T/C (dose: 50.0 mg/kg/injection, schedule: Q04DX004 (sc), vehicle: Klucel (hydroxypropylcellulose) (HPC)): 107 % of control
T/C (dose: 100.0 mg/kg/injection, schedule: Q04DX004 (sc), vehicle: Klucel (hydroxypropylcellulose) (HPC)): 57 % of control
T/C (dose: 200.0 mg/kg/injection, schedule: Q04DX004 (sc), vehicle: Klucel (hydroxypropylcellulose) (HPC)): 41 % of control

Nc1nc(/C=C(/O)c2ccccc2)c2ncn(C3OC(CO)C(O)C3O)c2n1 (configuration not stated)
T/C (dose: 50.0 mg/kg/injection, schedule: Q04DX004 (sc), vehicle: distilled water + Tween-80): 52 % of control
T/C (dose: 100.0 mg/kg/injection, schedule: Q04DX004 (sc), vehicle: distilled water + Tween-80): 70 % of control
T/C (dose: 200.0 mg/kg/injection, schedule: Q04DX004 (sc), vehicle: distilled water + Tween-80): 155 % of control
T/C (dose: 400.0 mg/kg/injection, schedule: Q04DX004 (sc), vehicle: distilled water + Tween-80): 80 % of control

NS(=O)(=O)OCCCCCCCOS(N)(=O)=O
T/C (dose: 37.5 mg/kg/injection, schedule: Q04DX004 (ip), vehicle: saline with Tween-80): 74 % of control
T/C (dose: 75.0 mg/kg/injection, schedule: Q04DX004 (ip), vehicle: saline with Tween-80): 102 % of control
T/C (dose: 150.0 mg/kg/injection, schedule: Q04DX004 (ip), vehicle: saline with Tween-80): 35 % of control

Cn1cnc([N+](=O)[O-])c1SCC(=O)O
T/C (dose: 300.0 mg/kg/injection, schedule: Q04DX004 (sc), vehicle: saline): 89 % of control
T/C (dose: 600.0 mg/kg/injection, schedule: Q04DX004 (sc), vehicle: saline): 83 % of control
T/C (dose: 1200.0 mg/kg/injection, schedule: Q04DX004 (sc), vehicle: saline): 66 % of control
T/C (dose: 2400.0 mg/kg/injection, schedule: Q04DX004 (sc), vehicle: saline): 77 % of control

CCc1ccc(C2=C(O)C(=O)C(c3ccccc3)=C(O)C2=O)cc1
T/C (dose: 75.0 mg/kg/injection, schedule: Q04DX004 (sc), vehicle: Klucel (hydroxypropylcellulose) (HPC)): 159 % of control

O=c1nc(-c2ccco2)sc(=O)[nH]1
T/C [1]: 235 % of control
T/C [2]: 98 % of control

CC(=O)Nc1ccc(S(=O)(=O)CO)cc1
T/C (dose: 225.0 mg/kg/injection, schedule: Q04DX004 (sc), vehicle: saline with Tween-80): 73 % of control
T/C (dose: 450.0 mg/kg/injection, schedule: Q04DX004 (sc), vehicle: saline with Tween-80): 57 % of control

Cn1cnc([N+](=O)[O-])c1Sc1ncn[nH]1
T/C (dose: 200.0 mg/kg/injection, schedule: Q04DX004 (sc), vehicle: suspension in saline): 49 % of control

NCCc1cc(O)c(O)c(O)c1
T/C (dose: 200.0 mg/kg/injection, schedule: Q04DX004 (sc), vehicle: saline): 92 % of control
T/C (dose: 400.0 mg/kg/injection, schedule: Q04DX004 (sc), vehicle: saline): 120 % of control
T/C (dose: 800.0 mg/kg/injection, schedule: Q04DX004 (sc), vehicle: saline): 101 % of control
T/C (dose: 1600.0 mg/kg/injection, schedule: Q04DX004 (sc), vehicle: saline): 61 % of control

CC[C@]1(O)C[C@H]2CN(CCc3c([nH]c4ccccc34)[C@@](C(=O)OC)(c3cc4c(cc3OC)N(C=O)[C@H]3[C@@](O)(C(=O)OC)[C@H](OC(C)=O)[C@]5(CC)C=CCN6CC[C@]43[C@@H]65)C2)C1
T/C (dose: 0.13 mg/kg/injection, schedule: Q01DX010 (sc), vehicle: saline): 86 % of control
T/C (dose: 0.25 mg/kg/injection, schedule: Q01DX010 (sc), vehicle: saline): 84 % of control
